From patent US10670605B2, “Cysteine reactive probes and uses thereof” (The Scripps Research Institute, priority 2015, dated 2020)
Counter-ions that a name gives are not always drawn. One block for each compound: values may come before it.

Key:
RNF214 C655 (Q8ND24) = RNF214 C655 (Q8ND24) (Homo sapiens, UniProt Q8ND24); assay: Competitive isoTOP-ABPP in situ; format: cell-based; conditions: fragment 2 at 200 μM, MDA-MB-231 cells
RRAGC C377 (Q9HB90) = RRAGC C377 (Q9HB90) (Homo sapiens, UniProt Q9HB90); assay: Competitive isoTOP-ABPP in situ; format: cell-based; conditions: fragment 2 at 200 μM, MDA-MB-231 cells
Sequence of RRAGC C377 (Q9HB90) (Q9HB90 2-399 limits assumed): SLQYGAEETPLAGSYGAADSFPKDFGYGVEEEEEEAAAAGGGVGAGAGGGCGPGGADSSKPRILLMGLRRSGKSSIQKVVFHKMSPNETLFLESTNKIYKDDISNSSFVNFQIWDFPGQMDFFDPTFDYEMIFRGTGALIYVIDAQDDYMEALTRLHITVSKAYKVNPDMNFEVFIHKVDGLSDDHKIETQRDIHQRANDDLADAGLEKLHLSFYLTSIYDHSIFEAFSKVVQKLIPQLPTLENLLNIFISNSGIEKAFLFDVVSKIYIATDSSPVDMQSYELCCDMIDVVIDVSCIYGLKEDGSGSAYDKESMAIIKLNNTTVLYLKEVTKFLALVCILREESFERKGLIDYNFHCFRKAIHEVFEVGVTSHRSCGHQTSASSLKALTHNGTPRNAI
Sequence of RRAGC C377 (Q9HB90) (Q7L523 whole entry partner, the tested form may be a part): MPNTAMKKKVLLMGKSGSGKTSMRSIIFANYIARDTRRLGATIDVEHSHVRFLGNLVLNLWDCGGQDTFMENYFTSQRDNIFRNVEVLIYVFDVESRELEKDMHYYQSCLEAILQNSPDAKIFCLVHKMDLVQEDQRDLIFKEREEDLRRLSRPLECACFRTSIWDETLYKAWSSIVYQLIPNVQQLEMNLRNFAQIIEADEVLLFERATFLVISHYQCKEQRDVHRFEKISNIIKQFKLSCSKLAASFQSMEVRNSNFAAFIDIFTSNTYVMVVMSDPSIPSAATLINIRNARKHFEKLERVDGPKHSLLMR

KDM4B C694 (O94953) = target: T1, KDM4B C694 (O94953) (Homo sapiens, UniProt O94953); assay: Competitive isoTOP-ABPP in situ; format: cell-based; conditions: fragment 2 at 200 μM, MDA-MB-231 cells
T1 sequence (O94953 1-1096): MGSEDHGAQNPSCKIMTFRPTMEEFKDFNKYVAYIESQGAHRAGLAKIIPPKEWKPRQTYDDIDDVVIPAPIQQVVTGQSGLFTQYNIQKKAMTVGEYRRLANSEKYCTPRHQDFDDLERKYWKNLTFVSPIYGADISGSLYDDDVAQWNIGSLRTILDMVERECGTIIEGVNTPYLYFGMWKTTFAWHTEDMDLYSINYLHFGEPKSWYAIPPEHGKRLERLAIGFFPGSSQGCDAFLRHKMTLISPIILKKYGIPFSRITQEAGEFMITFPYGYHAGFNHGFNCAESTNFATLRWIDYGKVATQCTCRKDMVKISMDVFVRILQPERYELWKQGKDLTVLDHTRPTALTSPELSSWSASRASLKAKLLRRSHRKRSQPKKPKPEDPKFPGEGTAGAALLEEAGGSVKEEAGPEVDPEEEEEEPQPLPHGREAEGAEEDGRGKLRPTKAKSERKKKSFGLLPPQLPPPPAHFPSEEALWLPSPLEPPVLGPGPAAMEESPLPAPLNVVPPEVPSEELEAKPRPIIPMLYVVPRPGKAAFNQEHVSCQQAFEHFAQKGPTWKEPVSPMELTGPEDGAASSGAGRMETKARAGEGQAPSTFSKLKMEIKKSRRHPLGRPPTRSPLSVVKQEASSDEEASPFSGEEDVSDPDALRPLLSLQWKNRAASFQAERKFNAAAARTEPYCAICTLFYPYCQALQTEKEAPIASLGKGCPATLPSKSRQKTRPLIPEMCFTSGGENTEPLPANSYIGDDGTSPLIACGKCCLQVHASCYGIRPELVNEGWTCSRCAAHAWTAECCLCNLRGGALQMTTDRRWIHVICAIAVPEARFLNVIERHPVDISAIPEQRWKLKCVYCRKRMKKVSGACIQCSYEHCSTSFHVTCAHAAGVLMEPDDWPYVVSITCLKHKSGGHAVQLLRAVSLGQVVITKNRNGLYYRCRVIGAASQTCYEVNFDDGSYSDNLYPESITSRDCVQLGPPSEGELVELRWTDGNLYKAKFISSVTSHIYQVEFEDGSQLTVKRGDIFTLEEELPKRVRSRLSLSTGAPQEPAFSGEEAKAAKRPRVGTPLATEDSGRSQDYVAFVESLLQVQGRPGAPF

TIGAR = target: T2, TIGAR (Homo sapiens, UniProt Q9NQ88); assay: TIGAR activity assay; format: biochemical; conditions: WT-TIGAR, concentration series
T2 construct: His6 (N); made in house; host or cells: E. coli BL21(DE3)
T2 sequence (Q9NQ88 whole entry): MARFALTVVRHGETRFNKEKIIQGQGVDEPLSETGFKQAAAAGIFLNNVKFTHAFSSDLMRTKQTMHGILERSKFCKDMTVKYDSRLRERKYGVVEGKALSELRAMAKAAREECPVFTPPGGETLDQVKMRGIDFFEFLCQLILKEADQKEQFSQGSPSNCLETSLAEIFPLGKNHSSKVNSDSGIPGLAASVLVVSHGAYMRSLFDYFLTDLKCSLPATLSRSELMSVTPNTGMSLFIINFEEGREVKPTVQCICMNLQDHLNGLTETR
Procedure: TIGAR activity assay was conducted as described in Gerin et al. The Biochemical Journal 458:439-448 (2014). Formation of 3PG (3-phosphoglycerate) production from 23BPG (2,3-bisphosphoglycerate) was measured spectrophotometrically on a TECAN plate reader, measuring decrease in absorbance at 340 nm in clear, flat-bottom 96 well microplate (Corning® Costar®). 2 μL of recombinant TIGAR (10 mg/mL) was diluted into 1 mL dilution buffer (25 mM HEPES, pH 7.1, 25 mM KCl, 1 mM MgCl2). 25 μL of diluted protein was incubated for 1 h with the indicated concentration of compound (1 μL, 25× stock in DMSO). Then 75 μL of assay mixture comprised of 25 mM HEPES (pH 7.1), 25 mM KCl, 1 mM MgCl2, 0.5 mM NADH, 1 mM DTT, 1 mM 23BPG, 1 mM ATP-Mg, the equivalent of 1 μL each of rabbit muscle GAPDH (4000 units/mL, Sigma, G5537) and yeast PG kinase (6300 units/mL, Sigma, P7634) was added to the protein and decrease in absorbance was monitored at 340 nm. The background, calculated from samples lacking TIGAR, was subtracted from samples containing TIGAR. Experiments were performed in quadruplicate.

[1] = system: Cys residues in mouse T cells; assay: isoTOP-ABPP of DMF-treated mouse T cells; format: cell-based; conditions: 50 μM, 4 h
Procedure: Spleens were harvested from female mice, perfused with collagenase, and incubated at 37° C. with 5% CO2 for 30 min. After this time, the spleens were homogenized. Cells that passed through a 100 μm cell strainer were collected and washed with RPMI. T cells were isolated from the splenocytes using the EasySep™ Mouse T cell Isolation Kit (19851; […]) according to manufacturer's instructions. Cells were lysed by sonication and diluted to a concentration of 2 mg protein/mL. […] Site-specific engagement of electrophilic compounds was assessed by blockade of IA-alkyne probe labeling. […] Overlapping peptides with the same labeled cysteine (for example, same local sequence around the labeled cysteines but different charge states, MudPIT segment numbers, or tryptic termini) were grouped together, and the median ratio from each group was recorded as the R value of the peptide for that run.

[2] = target: Cys residues in primary human T cells (Homo sapiens, UniProt P21580); assay: isoTOP-ABPP of compound-treated primary human T cells; format: cell-based; conditions: TNFAIP3 C54 (P21580)
Sequence of Cys residues in primary human T cells (P21580 whole entry, the tested form may be a part): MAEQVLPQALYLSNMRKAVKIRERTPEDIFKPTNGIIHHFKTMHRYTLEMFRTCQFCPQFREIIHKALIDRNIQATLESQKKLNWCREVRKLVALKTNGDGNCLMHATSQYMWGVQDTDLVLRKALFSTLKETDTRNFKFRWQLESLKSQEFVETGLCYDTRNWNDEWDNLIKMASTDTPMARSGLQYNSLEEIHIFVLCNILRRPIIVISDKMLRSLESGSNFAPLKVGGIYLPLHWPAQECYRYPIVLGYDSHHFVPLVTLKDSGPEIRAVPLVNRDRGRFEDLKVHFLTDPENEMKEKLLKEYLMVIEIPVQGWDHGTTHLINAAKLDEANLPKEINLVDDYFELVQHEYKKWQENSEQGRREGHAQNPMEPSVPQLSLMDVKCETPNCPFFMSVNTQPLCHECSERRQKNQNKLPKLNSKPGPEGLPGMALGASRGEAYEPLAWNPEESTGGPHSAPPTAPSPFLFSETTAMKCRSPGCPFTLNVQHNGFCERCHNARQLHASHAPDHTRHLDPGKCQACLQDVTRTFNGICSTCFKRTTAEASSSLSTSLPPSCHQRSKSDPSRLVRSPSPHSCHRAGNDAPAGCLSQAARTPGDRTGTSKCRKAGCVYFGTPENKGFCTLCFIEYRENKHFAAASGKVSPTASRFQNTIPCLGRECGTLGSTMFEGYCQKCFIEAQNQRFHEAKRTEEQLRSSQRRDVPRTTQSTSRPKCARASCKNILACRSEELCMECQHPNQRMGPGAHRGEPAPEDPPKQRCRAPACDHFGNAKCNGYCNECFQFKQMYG

IMPACT C195 (Q9P2X3) = IMPACT C195 (Q9P2X3) (Homo sapiens, UniProt Q9P2X3); assay: Competitive isoTOP-ABPP in situ; format: cell-based; conditions: fragment 4 at 100 μM, MDA-MB-231 cells
Sequence of IMPACT C195 (Q9P2X3) (Q9P2X3 whole entry, the tested form may be a part): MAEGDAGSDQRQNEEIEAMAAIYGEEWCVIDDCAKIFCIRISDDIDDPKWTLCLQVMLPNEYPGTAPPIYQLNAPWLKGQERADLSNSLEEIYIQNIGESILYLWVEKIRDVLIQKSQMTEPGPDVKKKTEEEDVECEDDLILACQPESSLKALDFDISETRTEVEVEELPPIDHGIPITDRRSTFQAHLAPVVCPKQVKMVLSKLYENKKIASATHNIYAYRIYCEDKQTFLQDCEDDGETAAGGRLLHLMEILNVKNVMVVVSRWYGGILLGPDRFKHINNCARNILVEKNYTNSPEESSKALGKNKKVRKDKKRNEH

PGPEPI C149 (Q9NXJ5) = PGPEPI C149 (Q9NXJ5) (Homo sapiens, UniProt Q9NXJ5); assay: Competitive isoTOP-ABPP in situ; format: cell-based; conditions: fragment 4 at 100 μM, MDA-MB-231 cells
Sequence of PGPEPI C149 (Q9NXJ5) (Q9NXJ5 whole entry, the tested form may be a part): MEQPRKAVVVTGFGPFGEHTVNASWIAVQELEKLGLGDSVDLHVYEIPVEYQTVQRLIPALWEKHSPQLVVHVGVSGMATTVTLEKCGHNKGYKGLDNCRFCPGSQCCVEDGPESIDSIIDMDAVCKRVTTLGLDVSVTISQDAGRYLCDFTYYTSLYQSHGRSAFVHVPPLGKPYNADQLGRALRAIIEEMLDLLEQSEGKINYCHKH

RAI14 C973 (Q9P0K7) = RAI14 C973 (Q9P0K7) (Homo sapiens, UniProt Q9P0K7); assay: Competitive isoTOP-ABPP in situ; format: cell-based; conditions: fragment 4 at 100 μM, MDA-MB-231 cells
Sequence of RAI14 C973 (Q9P0K7) (Q9P0K7 whole entry, the tested form may be a part): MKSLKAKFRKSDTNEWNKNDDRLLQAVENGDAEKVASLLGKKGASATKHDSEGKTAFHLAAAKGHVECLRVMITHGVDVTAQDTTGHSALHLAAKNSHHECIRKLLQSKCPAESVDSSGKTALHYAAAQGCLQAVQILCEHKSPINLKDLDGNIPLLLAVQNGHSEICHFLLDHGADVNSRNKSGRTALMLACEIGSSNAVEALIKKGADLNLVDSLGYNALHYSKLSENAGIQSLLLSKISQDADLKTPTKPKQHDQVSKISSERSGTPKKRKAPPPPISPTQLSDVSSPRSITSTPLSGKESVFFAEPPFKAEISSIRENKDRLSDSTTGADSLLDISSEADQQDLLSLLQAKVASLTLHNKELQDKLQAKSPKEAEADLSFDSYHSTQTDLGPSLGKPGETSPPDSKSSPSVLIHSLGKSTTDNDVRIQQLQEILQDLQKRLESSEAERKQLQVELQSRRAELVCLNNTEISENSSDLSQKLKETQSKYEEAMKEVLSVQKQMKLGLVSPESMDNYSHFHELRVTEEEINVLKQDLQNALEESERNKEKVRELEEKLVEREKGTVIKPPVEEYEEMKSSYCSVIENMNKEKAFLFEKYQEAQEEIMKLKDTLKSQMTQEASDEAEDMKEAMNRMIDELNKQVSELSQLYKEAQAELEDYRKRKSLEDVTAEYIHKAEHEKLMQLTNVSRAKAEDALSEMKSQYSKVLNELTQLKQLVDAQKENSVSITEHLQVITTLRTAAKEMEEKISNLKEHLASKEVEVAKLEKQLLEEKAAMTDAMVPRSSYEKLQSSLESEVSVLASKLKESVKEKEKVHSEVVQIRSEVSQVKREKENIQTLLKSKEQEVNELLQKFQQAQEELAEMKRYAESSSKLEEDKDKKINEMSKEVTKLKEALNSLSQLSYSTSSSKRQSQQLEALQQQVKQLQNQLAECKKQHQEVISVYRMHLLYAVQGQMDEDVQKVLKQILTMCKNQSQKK

Sequence of RNF214 C655 (Q8ND24) (Q8ND24 whole entry, the tested form may be a part): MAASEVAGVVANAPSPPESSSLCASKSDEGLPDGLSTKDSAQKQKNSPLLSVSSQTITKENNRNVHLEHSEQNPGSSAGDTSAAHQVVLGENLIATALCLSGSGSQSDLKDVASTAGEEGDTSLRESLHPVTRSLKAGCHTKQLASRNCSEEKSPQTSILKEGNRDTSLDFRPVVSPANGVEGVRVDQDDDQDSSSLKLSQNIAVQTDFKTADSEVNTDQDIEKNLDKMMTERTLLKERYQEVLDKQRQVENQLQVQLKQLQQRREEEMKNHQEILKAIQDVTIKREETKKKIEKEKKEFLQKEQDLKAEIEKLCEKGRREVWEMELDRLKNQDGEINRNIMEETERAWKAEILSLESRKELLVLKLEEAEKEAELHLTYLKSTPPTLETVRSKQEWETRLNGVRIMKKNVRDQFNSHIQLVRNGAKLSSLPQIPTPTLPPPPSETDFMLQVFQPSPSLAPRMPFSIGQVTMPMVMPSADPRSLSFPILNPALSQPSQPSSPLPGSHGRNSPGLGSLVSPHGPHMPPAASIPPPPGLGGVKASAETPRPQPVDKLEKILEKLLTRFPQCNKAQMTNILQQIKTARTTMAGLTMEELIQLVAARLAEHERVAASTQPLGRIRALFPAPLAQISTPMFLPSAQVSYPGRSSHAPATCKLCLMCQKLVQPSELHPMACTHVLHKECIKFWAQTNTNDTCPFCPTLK

- isoTOP-ABPP reactivity profile (ratio) 2_200 μM_in-situ_231 (RNF214 C655 (Q8ND24)): 6.5
- isoTOP-ABPP reactivity profile (ratio) 2_200 μM_in-situ_231 (RRAGC C377 (Q9HB90)): 3.3
- isoTOP-ABPP reactivity profile (ratio) 2_200 μM_in-situ_231 (KDM4B C694 (O94953)): 20.0
SMILES: COc1ccc2c(c1)CCCN2C(=O)CCl [compound 2]

- plateau of inhibition of TIGAR substrate turnover (TIGAR): 70%
SMILES: C=CC(=O)N(c1ccccc1)c1ccc(Br)cc1 [compound 5]

SMILES: COC(=O)/C=C/C(=O)OC [DMF, dimethyl fumarate]
- fraction of conserved, quantified DMF-sensitive Cys also blocked (R >4) in mouse T cells [1]: > 80%
- R value (DMSO/DMF) ([2]; DMF 10 μM 4h): 1.58
- R value (DMSO/DMF) ([2]; DMF 50 μM 2h): 5.34

- isoTOP-ABPP reactivity profile (ratio) 4_100 μM_in-situ_231 (IMPACT C195 (Q9P2X3)): 20.0
- isoTOP-ABPP reactivity profile (ratio) 4_100 μM_in-situ_231 (PGPEPI C149 (Q9NXJ5)): 20.0
- isoTOP-ABPP reactivity profile (ratio) 4_100 μM_in-situ_231 (RAI14 C973 (Q9P0K7)): 8.7
SMILES: COc1ccc(C2CC(c3cccs3)=NN2C(=O)CCl)cc1 (stereo not shown) [compound 4]
